What was measured:
[1] = system: Green peach aphids (Myzus Persicae Sulzer); assay: bioactivity test against green peach aphid, airbrush foliar spray; type: in vivo; details: for Insecticidal activity against peach aphid (%): contrastive test
Experimental: (§1) Compounds were dissolved in mixed solvent (acetone:methanol=1:1), and diluted to required concentration with water containing 0.1% of tween 80.
(§2) Diamond back moth, armyworm, peach aphid and carmine spider mite were used as targets and the method of spraying by airbrush was used for determination of insecticidal biassays.
Method: Filter papers were put in culture dishes (Diameter=6 cm), and water was dripped on filter papers for preserving moisture. Green peach aphids (Myzus Persicae Sulzer) were maintained on cabbage. Leaves (Diameter=3 cm) of approximately 15-30 aphids were put in the culture dishes. Bioactivity tests were used the method of Airbrush Foliar Spray, pressure=10 psi (0.7 kg/cm2), spray volume=0.5 mL. The studies were conducted at […] 25±1 C in incubator cabinets with 60±5% RH. Survey the survival aphids after 48 hrs and calculate the death rates.

corn rust = assay: protectant activity in vivo against corn rust
cucumber downy mildew = assay: protectant activity in vivo against cucumber downy mildew; details: for control effect against cucumber downy mildew (%): protectant activity
wheat powdery mildew = assay: protectant activity in vivo against wheat powdery mildew
carmine spider mite = assay: bioactivity test against carmine spider mite, airbrush spray; type: in vivo; details: 600 ppm, mortality after 72 hrs
Experimental: as §1, §2
The method: Broadbean shoots with two true leaves in pot were taken, the healthy adults of carmine spider mite were inoculated to the leaves. The adults were counted and then sprayed with airbrush at the pressure of 0.7 kg/cm^2 and at dose of 0.5 ml. 3 replicates were set for each treatment. And then they were maintained in standard observation room. Scores were conducted and mortalities were calculated after 72 hrs.

[2] = 100 ppm, death rate after 48 hrs
[3] = 600 ppm, death rate after 48 hrs
[4] = 10 ppm, death rate after 48 hrs

SMILES	control (test results against green peach aphid) [1, 2] [%]	control (test results against green peach aphid) [1, 3] [%]	protectant activity against corn rust in vivo (corn rust; 400 ppm) [%]	protectant activity against cucumber downy mildew in vivo (cucumber downy mildew; 400 ppm) [%]	protectant activity against wheat powdery mildew in vivo (wheat powdery mildew; 100 ppm) [%]	protectant activity against wheat powdery mildew in vivo (wheat powdery mildew; 400 ppm) [%]	protectant activity against cucumber downy mildew in vivo (cucumber downy mildew; 100 ppm) [%]	control effect against cucumber downy mildew (%) (cucumber downy mildew; 25 mg/L)	control effect against cucumber downy mildew (%) (cucumber downy mildew; 50 mg/L)	control effect against cucumber downy mildew (%) (cucumber downy mildew; 100 mg/L)	control effect against cucumber downy mildew (%) (cucumber downy mildew; 400 mg/L)	protectant activity against cucumber downy mildew in vivo (cucumber downy mildew; 25 ppm) [%]	protectant activity against cucumber downy mildew in vivo (cucumber downy mildew; 50 ppm) [%]	other results
FC(F)c1ncnc(NCCc2ccc(Oc3ncc(Cl)cc3Cl)cc2)c1Cl [Compound I-2555]	100	100	100	100	100	100	–	–	–	–	–	–	–	protectant activity against wheat powdery mildew in vivo (wheat powdery mildew; 25 ppm): 100%
CCc1ncnc(NCCc2ccc(Oc3ncc(C(F)(F)F)cc3Cl)cc2)c1Cl [Compound I-602]	100	100	–	100	100	100	100	–	–	–	–	–	–	control against carmine spider mite (carmine spider mite): 100%
Cc1ncnc(NCCc2ccc(Oc3ccccc3Cl)nc2)c1Cl [III-5]	–	100	–	100	–	100	100	100	100	100	100	100	100	control against carmine spider mite (carmine spider mite): 100%
Cc1ncnc(NCCc2ccc(Oc3cc(Cl)ccc3Cl)nc2)c1Cl [III-83]	–	100	100	–	–	100	–	–	–	–	–	–	–	–
FC(F)(F)c1ccc(Oc2ccc(CNc3ncnc4ccccc34)cc2)nc1 [CK31, reference compound]	–	–	–	–	–	–	–	–	–	–	–	–	–	pest or weed control at 6.25 µg/mL (corn rust; Zea mays, 168 h, read-out: control effect against corn rust (%), 6.25 mg/L, protectant activity): 0%; pest or weed control at 25 µg/mL (corn rust; Zea mays, 168 h, read-out: control effect against corn rust (%), 25 mg/L, protectant activity): 0%; pest or weed control at 100 µg/mL (corn rust; Zea mays, 168 h, read-out: control effect against corn rust (%), 100 mg/L, protectant activity): 0%; pest or weed control at 400 µg/mL (corn rust; Zea mays, 168 h, read-out: control effect against corn rust (%), 400 mg/L, protectant activity): 0%; pest or weed control at 6.25 µg/mL (wheat powdery mildew; Triticum aestivum, 168 h, read-out: control effect against wheat powdery mildew (%), 6.25 mg/L, protectant activity): 0%; pest or weed control at 25 µg/mL (wheat powdery mildew; Triticum aestivum, 168 h, read-out: control effect against wheat powdery mildew (%), 25 mg/L, protectant activity): 0%; pest or weed control at 100 µg/mL (wheat powdery mildew; Triticum aestivum, 168 h, read-out: control effect against wheat powdery mildew (%), 100 mg/L, protectant activity): 0%; pest or weed control at 400 µg/mL (wheat powdery mildew; Triticum aestivum, 168 h, read-out: control effect against wheat powdery mildew (%), 400 mg/L, protectant activity): 0%
CCc1nc(C)nc(NCCc2ccc(Oc3nc(Cl)c(Cl)cc3Cl)cc2)c1Cl [Compound I-6790]	–	–	–	–	–	–	–	–	–	–	–	–	–	pest or weed control at 600 ppm ([1]; Myzus persicae, foliar, 48 h, 600 ppm, death rate after 48 hrs): 100%; pest or weed control at 400 ppm (corn rust; Zea mays, 168 h, read-out: protectant activity against corn rust in vivo, 400 ppm): 100%; pest or weed control at 25 ppm (cucumber downy mildew; Cucumis sativus, 168 h, read-out: protectant activity against cucumber downy mildew in vivo, 25 ppm): 80 to 99%; pest or weed control at 50 ppm (cucumber downy mildew; Cucumis sativus, 168 h, read-out: protectant activity against cucumber downy mildew in vivo, 50 ppm): 80 to 99%; pest or weed control at 100 ppm (cucumber downy mildew; Cucumis sativus, 168 h, read-out: protectant activity against cucumber downy mildew in vivo, 100 ppm): 80 to 99%; pest or weed control at 400 ppm (cucumber downy mildew; Cucumis sativus, 168 h, read-out: protectant activity against cucumber downy mildew in vivo, 400 ppm): 100%; pest or weed control at 400 ppm (wheat powdery mildew; Triticum aestivum, 168 h, read-out: protectant activity against wheat powdery mildew in vivo, 400 ppm): 100%
CCc1ncnc(NCCc2ccc(Oc3ccc(C(F)(F)F)cc3Cl)nc2)c1Cl [III-301]	100	100	100	100	100	100	100	100	100	100	100	100	100	Insecticidal activity against peach aphid (%) ([1]; 10 mg/L): 100%; Insecticidal activity against peach aphid (%) ([1]; 100 mg/L): 100%; Insecticidal activity against peach aphid (%) ([1]; 600 mg/L): 100%; control (test results against green peach aphid) [1, 4]: 100%; protectant activity against corn rust in vivo (corn rust; 100 ppm): 100%; control effect against cucumber downy mildew (%) (cucumber downy mildew; 6.25 mg/L): 100%; control effect against cucumber downy mildew (%) (cucumber downy mildew; 12.5 mg/L): 100%; protectant activity against cucumber downy mildew in vivo (cucumber downy mildew; 6.25 ppm): 100%; protectant activity against cucumber downy mildew in vivo (cucumber downy mildew; 12.5 ppm): 100%
Cc1ncnc(NCCc2ccc(Oc3ccc(Cl)cc3Cl)nc2)c1Cl [III-82]	–	100	100	100	–	100	100	100	100	100	100	100	100	control effect against cucumber downy mildew (%) (cucumber downy mildew; 12.5 mg/L): 98%
COc1ccc(Oc2ccc(CCNc3nc(C)nc(Cl)c3Cl)cn2)cc1 [III-2539]	–	100	100	100	–	–	100	100	100	100	100	100	100	control against carmine spider mite (carmine spider mite): 100%; control effect against cucumber downy mildew (%) (cucumber downy mildew; 12.5 mg/L): 85%
CCOC(=O)c1ccc(Oc2ccc(CCNc3ncnc(C)c3Cl)cc2)nc1 [Compound I-35]	100	100	100	100	–	100	–	–	–	–	–	–	–	control (test results against green peach aphid) [1, 4]: 100%; protectant activity against corn rust in vivo (corn rust; 100 ppm): 100%
CCc1ncnc(NCCc2ccc(Oc3cccc(Cl)c3)nc2)c1Cl [III-186]	100	100	100	–	–	100	–	–	–	–	–	–	–	–
CCc1ncnc(NCCc2ccc(Oc3ccc(Cl)cc3Cl)nc2)c1Cl [III-262]	100	100	100	100	–	100	100	100	100	100	100	100	100	control effect against corn rust (%) (corn rust; 0.4 mg/L, protectant activity): 60%; control effect against corn rust (%) (corn rust; 1.6 mg/L, protectant activity): 90%; control effect against corn rust (%) (corn rust; 6.25 mg/L, protectant activity): 90%; control effect against corn rust (%) (corn rust; 25 mg/L, protectant activity): 100%; control effect against corn rust (%) (corn rust; 100 mg/L, protectant activity): 100%; control effect against corn rust (%) (corn rust; 400 mg/L, protectant activity): 100%; protectant activity against corn rust in vivo (corn rust; 25 ppm): 100%; protectant activity against corn rust in vivo (corn rust; 100 ppm): 100%
Cc1ncnc(NCCc2ccc(Oc3ccc(C(F)(F)F)cc3Cl)nc2)c1Cl [III-121]	100	100	–	100	100	100	100	100	100	100	100	100	100	–

Source: patent publication US9770026B2, “Substituted pyrimidine compound and uses thereof” (Shenyang Sinochem Agrochemicals R&D Co., Ltd., priority 2012, dated 2017)
